Reference: patent publication US9242944B2 (UNIVERSITY OF MARYLAND, BALTIMORE, priority 2013, dated 2016)
“Also recorded” adds a separate entry of the source. Like-named read-outs stand apart in the source and are kept apart here.

Experiments:
c-Myc-Max heterodimers = biological target: T1, c-Myc-Max heterodimers (Homo sapiens, UniProt P01106); assay: Electrophoretic mobility shift assay (EMSA) of c-Myc-Max dimerization and DNA binding
T1 construct: c-Myc bHLH-ZIP domain (residues 353-437); His6-TEV protease substrate tag; made in house; host or cells: bacteria (pET151 vector for Myc)
Experimental: The ability of a small-molecule to interfere with c-Myc-Max dimerization is conveniently assessed through the disruption of the c-Myc-Max/DNA ternary complex by an electrophoretic mobility shift assay (EMSA) using fluorescently-labelled DNA, and subsequently quantified by densitometry.(23) Accordingly, a 100-member library was screened for the ability to disrupt the c-Myc-Max dimer.
These were performed essentially as described previously (23). Briefly, Ni^+-agarose-purified His6-tagged c-Myc bHLH-ZIP domain (residues 353-437) was used for all binding assays as was the His6-tagged 151 residue isoform of Max, otherwise referred to as Max(S) (residues 2-151) (21). For each binding reaction, the proteins were allowed to heterodimerize at a concentration of 30 nM each in the presence of 20 nM of a 5′-HEX-tagged double-stranded 22-base pair oligonucleotide 5′-hexachlorofluoresceine-[…]-3′ (SEQ ID NO: 1) containing a consensus c-Myc binding site (CACGTG) and the indicated concentration of small molecule inhibitor. Control reactions contained the same oligonucleotide in the presence of 60 nM of the 160 residue isoform of Max referred to as Max(L) (21). All binding reactions were prepared in a buffer consisting of PBS (pH 7.3), 1 mmol/L EDTA, 0.1% NP40, 5% glycerol, 1 mmol/L DTT, and 0.4 mg/mL bovine serum albumin. Electrophoresis was performed on 8% polyacrylamide/bisacrylamide (80:1) gels in […] (23). Each reaction was run on at least three separate occasions.
EMSAs were performed essentially as described utilizing bacterially-expressed recombinant proteins purified nearly to homogeneity.(23) Experiments with Max homodimers used the His6-tagged 160 amino acid isoform of the protein, termed Max(L), which homodimerizes and binds DNA well. For studies with Myc-Max heterodimers, the His6-tagged 151 residue isoform of Max [Max(S)] was used, which binds DNA well as a heterodimer with Myc but poorly as a homodimer.(23) Recombinant Myc protein, expressed in the pET151 vector, consisted of the His6-TEV protease substrate-tagged 85 amino acid bHLH-ZIP domain. (23) Each protein was purified by Ni-agarose affinity chromatography as previously described. (23) The His6-TEV tag was removed from the Myc protein by TEV protease cleavage followed by re-purification using Ni-agarose affinity chromatography to remove the His6-TEV protease and the cleaved His6-TEV tag as previously described. Binding assays were performed with 30 nM of each protein and 30 nM of a 6-carboxy-2′,4,4′,5′,7,7′-hexachlorofluorescein (HEX)-tagged double-stranded oligonucleotide containing a consensus Myc binding site (IDT, Coralville, Iowa).(23)

HL60 cells = assay: Growth inhibition (MTT assay) in HL60 cells; format: cell-based, human; settings: for IC50: Homo sapiens, HL-60, MTT assay; for IC50 HL60: MTT assay
Experimental: (§1) These were performed using HL60 human promyelocytic leukemia cells or Daudi Burkitt lymphoma cells essentially as described previously (23). Briefly, cells were seeded into 96 well dishes (5000 cells/well and 10,000 cells/well for HL60 and Daudi cells, respectively). Growth medium consisted of RPMI medium supplemented with Penicillin/Streptomycin, glutamine and 10% fetal bovine serum. The indicated concentrations of each compound were then added and 10-point growth inhibition assays were performed 3-5 days later using the MTT assay. Each point was performed in quadruplicate.
(§2) Daudi Burkitt lymphoma and HL60 promyelocytic leukemia cells were maintained in RPMI medium supplemented with 10% fetal bovine serum.(23) For growth inhibition studies, 3×10^3 cells were seeded in 96 well plates in the presence of serial dilutions of each compound. A total of 10 dilutions, ranging from 0.1 to 50 μM were performed for each compound. Standard MTT assays (23) were used to quantify cell number 3-4 days later and compared to wells exposed to DMSO vehicle only.

Max-Max homodimers = biological target: T2, Max-Max homodimers (Homo sapiens, UniProt P61244); assay: EMSA of Max-Max homodimerization and DNA binding; settings: for IC50: 50% inhibition of Max-Max dimerization and DNA binding in EMSAs
T2 construct: His6; made in house; host or cells: bacteria

Daudi cells = assay: Growth inhibition (MTT assay) in Daudi cells; format: cell-based; settings: for IC50: Homo sapiens, Daudi
Experimental: as §1, §2

c-Myc-Max dimerization = biological target: T3, c-Myc-Max dimerization (Homo sapiens, UniProt P01106); assay: Co-immunoprecipitation (Co-IP) of c-Myc with Max in HL60 cells; format: cell-based
T3 construct: endogenous in cells; host or cells: HL60
Experimental: Co-IP assays were performed essentially as described previously.(23) Briefly, 5×10^6 HL60 cells (>90% viable) in log-phase growth were treated in suspension for 4-6 h with the stated concentration of 3jc48-3. As a negative control, samples exposed to DMSO vehicle only were included and processed in parallel. Treated cells were collected by centrifugation, washed twice in ice-cold PBS and lysed in IP Buffer. 300 μg of cleared lysate was then precipitated with a 1:200 dilution of anti-Max antibody(23) followed by subsequent precipitation with protein G-Sepharose using conditions recommended by the supplier (Santa Cruz Biotechnology, Inc. Santa Cruz, Calif.). The precipitate was washed three times in IP buffer, boiled in running buffer and resolved by 10% SDS-PAGE. After electrotransfer of the proteins to a PVDF membrane (Millipore Corp. Billercica, Mass.), the blot was probed with a 1:1000 dilution of anti-Myc monoclonal antibody (9E10, Santa Cruz Biotechnology, Santa Cruz, Calif.). Blots were developed using a Pierce ECL Plus enhanced chemiluminescence kit according to the directions of the supplier (Thermo-Fisher, Pittsburgh, Pa.).

[1] = 50% inhibition of c-Myc-Max dimerization and DNA binding in EMSAs
[2] = Table 10, 100 μM small-molecule, EMSA, read-out: % Inhibition of c-Myc-Max Dimerization
[3] = 10-point serial dilution, quadruplicate, read-out: IC50 HL60
[4] = 10-point serial dilution, quadruplicate
[5] = 10-point serial dilution, quadruplicate, read-out: IC50 Daudi
[6] = Table 11, 100 uM, EMSA, read-out: % Inhibition of c-Myc-Max Dimerization
[7] = read-out: Inhibition at 100 μM (%), Table 1, 100 μM compound, Myc-Max/DNA band intensity relative to control

T2 sequence (P61244 whole entry): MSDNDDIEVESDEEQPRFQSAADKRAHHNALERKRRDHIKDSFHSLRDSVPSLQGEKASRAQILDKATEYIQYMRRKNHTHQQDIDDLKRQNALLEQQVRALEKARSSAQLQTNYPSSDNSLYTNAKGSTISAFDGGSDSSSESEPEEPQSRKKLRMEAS
T1 sequence (P01106 368-452, one chain of several): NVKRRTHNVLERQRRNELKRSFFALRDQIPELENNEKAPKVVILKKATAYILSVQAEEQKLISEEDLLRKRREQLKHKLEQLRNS
T3 sequence (P01106 16-454 limits assumed): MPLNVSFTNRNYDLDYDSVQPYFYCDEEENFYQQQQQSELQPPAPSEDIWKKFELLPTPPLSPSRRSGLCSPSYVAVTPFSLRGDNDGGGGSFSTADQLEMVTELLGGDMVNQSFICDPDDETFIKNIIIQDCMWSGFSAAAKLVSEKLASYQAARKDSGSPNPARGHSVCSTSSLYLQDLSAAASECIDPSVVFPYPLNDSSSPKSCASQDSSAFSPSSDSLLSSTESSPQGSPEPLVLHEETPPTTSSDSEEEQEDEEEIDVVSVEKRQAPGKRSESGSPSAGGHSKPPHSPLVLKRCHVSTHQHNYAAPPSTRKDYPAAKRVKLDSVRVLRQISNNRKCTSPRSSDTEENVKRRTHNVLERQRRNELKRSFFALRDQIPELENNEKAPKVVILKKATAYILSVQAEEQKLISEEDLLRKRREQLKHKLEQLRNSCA

Cc1ccc(-c2cc(C(=O)O)ccc2Nc2ccc([N+](=O)[O-])c3nonc23)cc1 [Compound 3jc53-6, 4′-Methyl-6-((7-nitrobenzo[c][1,2,5]oxadiazol-4-yl)amino)-[1,1′-biphenyl]-3-carboxylic acid]
IC50 (c-Myc-Max heterodimers; [1]): > 100 µM | inhibition of c-Myc-Max dimerization in vitro (in words) (c-Myc-Max heterodimers; EMSA): inactive in vitro | inhibition at 100 µM (c-Myc-Max heterodimers; [2]): 16% | IC50 (HL60 cells; [3]): > 100 µM | IC50 HL60 (HL60 cells; [4]): inactive | IC50 (Max-Max homodimers): > 100 µM | IC50 Daudi (Daudi cells; [4]): inactive | IC50 (Daudi cells; [5]): > 100 µM

O=C(O)c1cc([N+](=O)[O-])ccc1Nc1ccccc1-c1ccccc1 [SF-3-103B, 2-([1,1′-biphenyl]-2-ylamino)-5-nitrobenzoic acid]
IC50 (c-Myc-Max heterodimers; [1]): 84 µM | c-Myc-Max inhibitory potency relative to 10074-G5 (c-Myc-Max heterodimers; EMSA): nearly two-fold more potent | inhibition at 100 µM (c-Myc-Max heterodimers; [6]): ≥ 33% | IC50 (HL60 cells; [3]): > 100 µM | IC50 HL60 (HL60 cells; [4]): inactive | IC50 (Max-Max homodimers): > 100 µM | IC50 Daudi (Daudi cells; [4]): inactive | IC50 (Daudi cells; [5]): > 100 µM

O=C(OCC(F)(F)F)c1ccc(Nc2ccc([N+](=O)[O-])c3nonc23)cc1 [Compound 3jc91-7, Trifluoroethyl 4-((7-nitrobenzo[c][1,2,5]oxadiazol-4-yl)amino)benzoate]
disruption of c-Myc-Max dimerization in cells (co-IP) (c-Myc-Max dimerization): inhibit c-Myc-Max dimerization in cells

O=C(Oc1ccccc1)c1ccc(Nc2ccc([N+](=O)[O-])c3nonc23)cc1 [SF-4-017, Phenyl 4-((7-nitrobenzo[c][1,2,5]oxadiazol-4-yl)amino)benzoate]
IC50 (c-Myc-Max heterodimers): 30 µM | IC50 (HL60 cells; [3]): 9.2 ± 0.78 µM | IC50 HL60 (HL60 cells; [4]): single-digit micromolar | IC50 (Max-Max homodimers): > 50 µM | IC50 Daudi (Daudi cells; [4]): single-digit micromolar | IC50 (Daudi cells; [5]): 2.5 ± 0.05 µM | disruption of c-Myc-Max dimerization in cells (co-IP) (c-Myc-Max dimerization): inhibit c-Myc-Max dimerization in cells

O=C(Nc1ccccc1C(F)(F)F)c1ccc(Nc2ccc([N+](=O)[O-])c3nonc23)cc1 [JY-5-261, 4-((7-Nitrobenzo[c][1,2,5]oxadiazol-4-yl)amino)-N-(2-(trifluoromethyl)phenyl)benzamide]
IC50 (c-Myc-Max heterodimers; [1]): 71 µM | IC50 (HL60 cells; [3]): 5.3 ± 0.3 µM | IC50 HL60 (HL60 cells; [4]): single-digit micromolar | IC50 (Max-Max homodimers): > 100 µM | IC50 Daudi (Daudi cells; [4]): single-digit micromolar | IC50 (Daudi cells; [5]): 3.9 ± 0.4 µM

O=C(Nc1ccccc1)c1ccc(Nc2ccc([N+](=O)[O-])c3nonc23)cc1 [JY-5-195, 4-((7-Nitrobenzo[c][1,2,5]oxadiazol-4-yl)amino)-N-phenylbenzamide]
IC50 (c-Myc-Max heterodimers; [1]): 57.9 µM | IC50 (HL60 cells; [3]): 3.1 ± 0.3 µM | IC50 HL60 (HL60 cells; [4]): single-digit micromolar | IC50 (Max-Max homodimers): > 100 µM | IC50 Daudi (Daudi cells; [4]): single-digit micromolar | IC50 (Daudi cells; [5]): 5.1 ± 0.56 µM

COC(=O)c1ccc(Nc2ccc([N+](=O)[O-])c3nonc23)c(-c2ccc(C(F)(F)F)cc2)c1 [Compound 4jc23-4, Methyl 6-((7-nitrobenzo[c][1,2,5]oxadiazol-4-yl)amino)-4′-(trifluoromethyl)-[1,1′-biphenyl]-3-carboxylate]
IC50 (c-Myc-Max heterodimers; [1]): 75 µM | inhibition at 100 µM (c-Myc-Max heterodimers; [2]): 74% | IC50 (HL60 cells; [3]): 0.877 ± 0.07 µM | IC50 (HL60 cells; read-out: IC50 against HL60 cells): 0.877 µM | IC50 (Max-Max homodimers): > 100 µM | IC50 (Daudi cells; [5]): 0.5 ± 0.025 µM | IC50 (Daudi cells; read-out: IC50 against Daudi cells): 0.5 µM

O=C(O)c1ccc(Nc2ccc([N+](=O)[O-])c3nonc23)cc1 [JY-3-094, 4-((7-Nitrobenzo[c][1,2,5]oxadiazol-4-yl)amino)benzoic acid]
IC50 (c-Myc-Max heterodimers; [1]): 33 µM | c-Myc-Max inhibitory potency relative to 10074-G5 (c-Myc-Max heterodimers; EMSA): around five-fold as potent | inhibition of c-Myc-Max dimerization in vitro (in words) (c-Myc-Max heterodimers; EMSA): dose-dependent inhibition | selectivity for Myc-Max heterodimers over Max-Max homodimers (c-Myc-Max heterodimers; EMSA): greater than three-fold selectivity; also recorded: at least three-fold selective | Kd (c-Myc-Max heterodimers; EMSA dose-response (FIG. 4), read-out: Kd value, inhibition of Myc-Max dimerization): 33 µM | inhibition at 100 µM (c-Myc-Max heterodimers; read-out: % Inhibition of c-Myc-Max Dimerization, Table 10, 100 μM small-molecule, EMSA): 94% | inhibition at 100 µM (c-Myc-Max heterodimers; read-out: % Inhibition of c-Myc-Max Dimerization, Table 11, 100 uM, EMSA): 94% | inhibition at 100 µM (c-Myc-Max heterodimers; [7]): 93% | IC50 (HL60 cells; [3]): > 100 µM | IC50 HL60 (HL60 cells; [4]): inactive | IC50 (Max-Max homodimers): > 100 µM | activity against Max-Max homodimers (Max-Max homodimers; EMSA, at 100 μM): no effect; also recorded: no activity | IC50 Daudi (Daudi cells; [4]): inactive | IC50 (Daudi cells; [5]): > 100 µM

O=C(O)c1ccc(Nc2ccc([N+](=O)[O-])c3nonc23)c(-c2ccccc2-c2ccccc2)c1 [Compound 3jc53-1]
inhibition at 100 µM (c-Myc-Max heterodimers; [2]): 18%

O=C(O)CCC(=O)Nc1ccc(Nc2ccccc2-c2ccccc2)c2nonc12 [Compound 5d, 4-((7-([1,1′-Biphenyl]-2-ylamino)benzo[c][1,2,5]oxadiazol-4-yl)amino)-4-oxobutanoic acid]
inhibition at 100 µM (c-Myc-Max heterodimers; Table 2, 100 μM compound, Myc-Max/DNA band intensity relative to control, read-out: Inhibition at 100 μM (%)): 17%

O=C(O)c1ccc(Nc2ccc([N+](=O)[O-])c3nonc23)c(-c2ccccc2O)c1 [Compound 3jc53-13]
inhibition at 100 µM (c-Myc-Max heterodimers; [2]): 0%

O=C(O)c1ccc(-c2cc(C(=O)O)ccc2Nc2ccc([N+](=O)[O-])c3nonc23)cc1 [Compound 3jc53-15]
inhibition at 100 µM (c-Myc-Max heterodimers; [2]): 6%

O=C(O)c1ccc(Nc2ccccc2-c2ccccc2)cc1 [SF-3-093B]
inhibition at 100 µM (c-Myc-Max heterodimers; [6]): 4%

N#Cc1cc([N+](=O)[O-])ccc1Nc1ccccc1-c1ccccc1 [SF-3-079]
inhibition at 100 µM (c-Myc-Max heterodimers; [6]): 0%

O=[N+]([O-])c1ccc(Nc2ccc(-c3ccccc3)cc2)c2nonc12 [Compound 3n]
inhibition at 100 µM (c-Myc-Max heterodimers; [7]): 28%

O=C(O)c1cc(Nc2ccccc2-c2ccccc2)ccc1[N+](=O)[O-] [SF-3-070]
inhibition at 100 µM (c-Myc-Max heterodimers; [6]): 5%
